Assay results published in ChEMBL document CHEMBL5108051, “Improving the Antimicrobial Performance of Amphiphilic Cationic Antimicrobial Peptides Using Glutamic Acid Full-Scan and Positive Charge Compensation Strategies” (J Med Chem, 2022).
Active and inactive are the calls of the source. No cut-off for these calls is given here. Bridge positions count the residues as written; N and C are the ends. Square brackets hold non-standard residues; d marks the D form. Peptide text beside a SMILES is read from it. * marks the point of attachment. X1 = CC[C@H](C)CCCCC(=O)*; Dab = NCC[C@H](N)C(=O)O

How the values were obtained:
Staphylococcus aureus [1] = experiment: Antimicrobial activity against Staphylococcus aureus ATCC 25923 assessed as fold increase in MIC in presence of NaCl; format: functional
Escherichia coli [2] = experiment: Antibacterial activity against gentamicin resistant Escherichia coli ATCC 25922 assessed as fractional inhibitory concentration index in presence of polymyxin B by checkerboard assay; format: functional
[3] = Acute toxicity in BALB/c mouse assessed as decrease in motility at 40 to 80 mg/kg, ip administered as single dose measured for 7 days; format: organism-based; settings: in vivo, 168 h, dose 40-80 mg/kg, time 7 day
Escherichia coli [4] = experiment: Antibacterial activity against rifampin resistant Escherichia coli ATCC 25922 assessed as fractional inhibitory concentration index in presence of vancomycin by checkerboard assay; format: functional
Staphylococcus aureus [5] = experiment: Antibacterial activity against gentamicin resistant Staphylococcus aureus ATCC 25923 assessed as fractional inhibitory concentration index in presence of vancomycin by checkerboard assay; format: functional
[6] = Acute toxicity in BALB/c mouse assessed as mortality at 40 mg/kg, ip administered as single dose measured for 7 days; format: organism-based; settings: in vivo, time 7 day, read-out: Activity
Staphylococcus aureus [7] = experiment: Antibacterial activity against Staphylococcus aureus ATCC 25923 assessed as fractional inhibitory concentration index in presence of polymyxin B by checkerboard assay; format: functional
Escherichia coli [8] = experiment: Antibacterial activity against rifampin resistant Escherichia coli ATCC 25922 assessed as fractional inhibitory concentration index in presence of polymyxin B by checkerboard assay; format: functional
[9] = Acute toxicity in BALB/c mouse assessed as abdominal twitching at 40 to 80 mg/kg, ip administered as single dose measured for 7 days; format: organism-based; settings: in vivo, 168 h, dose 40-80 mg/kg, time 7 day
Staphylococcus aureus [10] = experiment: Antibacterial activity against gentamicin resistant Staphylococcus aureus ATCC 25923 assessed as fractional inhibitory concentration index in presence of polymyxin B by checkerboard assay; format: functional
[11] = Acute toxicity in BALB/c mouse lung assessed as increase in inter-alveolar space at 20 to 80 mg/kg, ip administered as single dose measured for 7 days by H and E staining method; format: organism-based; settings: in vivo, 168 h, dose 20-80 mg/kg, time 7 day
Staphylococcus aureus [12] = experiment: Antibacterial activity against Staphylococcus aureus ATCC 25923 assessed as fractional inhibitory concentration index in presence of rifampin by checkerboard assay; format: functional
Cell membrane [13] = experiment: Induction of cell membrane disruption in Escherichia coli ATCC 25922 assessed as cell morphological damage measured after 30 mins by […] electron microscope analysis; format: subcellular
[14] = Acute toxicity in BALB/c mouse assessed as rough hairs at 40 to 80 mg/kg, ip administered as single dose measured for 7 days; format: organism-based; settings: in vivo, 168 h, dose 40-80 mg/kg, time 7 day
Staphylococcus aureus [15] = experiment: Antibiofilm activity against Staphylococcus aureus ATCC 25923 assessed as inhibition of biofilm formation measured at 0.5 to 4 times MIC after 24 hrs by crystal violet staining based assay; format: functional, organism-based; settings: DDE = dose-dependent effect
Staphylococcus aureus [16] = experiment: In vivo antimicrobial activity against Staphylococcus aureus ATCC 25923 infected in BALB/C mouse pulmonary infection model at 5 to 10 mg/kg, ip; format: functional, organism-based; settings: dose 5-10 mg/kg
Cell membrane [17] = experiment: Induction of cytoplasmic membrane depolarization in Staphylococcus aureus ATCC 25923 assessed as increase in fluorescence intensity at 1 to 4 times MIC measured within 1 min by DiSC3-5 dye based fluorescence method; format: subcellular; settings: DDE = dose-dependent effect
Staphylococcus aureus [18] = experiment: Antimicrobial activity against Staphylococcus aureus ATCC 25923 assessed as fold increase in MIC in presence of MgCl2; format: functional
Escherichia coli [19] = experiment: Antibiofilm activity against Escherichia coli ATCC 25922 assessed as inhibition of biofilm formation at 0.5 times MIC measured after 24 hrs by crystal violet staining based assay; format: functional, organism-based
Staphylococcus aureus [20] = experiment: Antibacterial activity against rifampin resistant Staphylococcus aureus ATCC 25923 assessed as fractional inhibitory concentration index in presence of polymyxin B by checkerboard assay; format: functional
Escherichia coli [21] = experiment: Antibacterial activity against Escherichia coli ATCC 25922 assessed as fractional inhibitory concentration index in presence of rifampin by checkerboard assay; format: functional
Escherichia coli [22] = experiment: Antibiofilm activity against Escherichia coli ATCC 25922 assessed as inhibition of biofilm formation at 1 times MIC measured after 24 hrs by crystal violet staining based assay; format: functional, organism-based
Escherichia coli [23] = experiment: Antibacterial activity against Escherichia coli ATCC 25922 assessed as fractional inhibitory concentration index in presence of polymyxin B by checkerboard assay; format: functional
Cell membrane [24] = experiment: Induction of outer membrane permeabilization to NPN in Escherichia coli ATCC 25922 cells assessed as increase in fluorescence intensity by NPN fluorescent dye based microplate reader assay; format: subcellular
Escherichia coli [25] = experiment: Antibacterial activity against gentamicin resistant Escherichia coli ATCC 25922 assessed as fractional inhibitory concentration index in presence of kanamycin by checkerboard assay; format: functional
[26] = Cytotoxicity against human Glomerular mesenchymal cell assessed as reduction in cell viability at 0 to 128 uM incubated for 1 hr by Resazurin cell viability kit; format: toxicity, cell-based; settings: glomerular mesenchymal cells, dose 0-128 µM
Cell membrane [27] = experiment: Induction of cell membrane disruption in Staphylococcus aureus ATCC 25923 assessed as cell morphological damage measured after 30 mins by […] electron microscope analysis; format: subcellular
Cell membrane [28] = experiment: Induction of cytoplasmic membrane depolarization in Escherichia coli ATCC 25922 assessed as increase in fluorescence intensity measured within 1 min by DiSC3-5 dye based fluorescence method; format: subcellular
[29] = Retention time of the compound by RP-HPLC analysis; format: physicochemical
Escherichia coli [30] = experiment: Antibacterial activity against Escherichia coli ATCC 25922 assessed as inhibition of gentamicin resistance development measured after 15 passages in presence of gentamicin by resistance development assay; format: functional, organism-based
Staphylococcus aureus [31] = experiment: Antibacterial activity against Staphylococcus aureus ATCC 25923 infected in BALB/C mouse pulmonary infection model assessed as increase in alveolar aggregation in lung at 10 mg/kg, ip after 24 hrs by H and E staining method; format: functional, organism-based
[32] = Acute toxicity in BALB/c mouse spleen assessed as edema at 20 to 80 mg/kg, ip administered as single dose measured for 7 days by H and E staining method; format: organism-based; settings: in vivo, 168 h, dose 20-80 mg/kg, time 7 day
[33] = Stability of compound in serum measured after 1 to 6 hrs by RP-HPLC analysis; format: ADME, cell-free; settings: time 1-6 hrs
Escherichia coli [34] = experiment: Antimicrobial activity against Escherichia coli ATCC 25922 in presence of KCl; format: functional, organism-based
Escherichia coli [35] = experiment: Bactericidal activity against Escherichia coli ATCC 25922 at 2 times MIC measured after 30 mins by time-killing kinetics assay; format: functional; settings: 0.5 h
Escherichia coli [36] = experiment: Antibiofilm activity against Escherichia coli ATCC 25922 assessed as inhibition of biofilm formation at 2 times MIC measured after 24 hrs by crystal violet staining based assay; format: functional, organism-based
Escherichia coli [37] = experiment: Antimicrobial activity against Escherichia coli ATCC 25922 in presence of MgCl2; format: functional, organism-based
Escherichia coli [38] = experiment: Antimicrobial activity against Escherichia coli ATCC 25922 in presence of NaCl; format: functional, organism-based
Escherichia coli [39] = experiment: Bactericidal activity against Escherichia coli ATCC 25922 at 0.5 times MIC measured after 1 hr by time-killing kinetics assay; format: functional
[40] = Acute toxicity in BALB/c mouse assessed as pathological changes in liver at 10 to 40 mg/kg, ip administered as single dose measured for 7 days by H and E staining method; format: organism-based; settings: in vivo, 168 h, dose 10-40 mg/kg, time 7 day

Compound	fold change (FC) (Staphylococcus aureus [1])	fractional inhibitory concentration index (FICI) (Escherichia coli [2])	Activity [3]	fractional inhibitory concentration index (FICI) (Escherichia coli [4])	fractional inhibitory concentration index (FICI) (Staphylococcus aureus [5])	mortality at 168 h [6]	fractional inhibitory concentration index (FICI) (Staphylococcus aureus [7])	fractional inhibitory concentration index (FICI) (Escherichia coli [8])	Activity [9]	fractional inhibitory concentration index (FICI) (Staphylococcus aureus [10])	fractional inhibitory concentration index (FICI) (Staphylococcus aureus [12])	Activity (Cell membrane [13])	Activity [14]	Activity (Staphylococcus aureus [15])	Activity (Staphylococcus aureus [16])	fractional inhibitory concentration index (FICI) (Escherichia coli [21])	Activity (Cell membrane [24])	fractional inhibitory concentration index (FICI) (Escherichia coli [25])	Activity (Cell membrane [28])	Retention_time [29]	also measured
CC[C@H](C)[C@H](NC(=O)[C@@H]1CCCN1C(=O)[C@H](CC(C)C)NC(=O)[C@@H](N)Cc1ccccc1)C(=O)N[C@H](C(=O)N[C@@H](C)C(=O)N[C@@H](CCCCN)C(=O)N[C@@H](CC(C)C)C(=O)N[C@@H](CC(C)C)C(=O)N[C@@H](CO)C(=O)NCC(=O)N[C@@H](CC(C)C)C(=O)N[C@@H](CC(C)C)C(N)=O)C(C)C (H-FLPIVAKLLSGLL-NH2)	2	0.75	Toxic	0.25	0.625	40%	0.75	0.25	Toxic	0.625	0.75	Active	Toxic	Dde	Active	1.25	Active	1	Active	19.445 min	Activity [11]: Toxic; Activity (Cell membrane [17]): Dde; fold change (FC) (Staphylococcus aureus [18]): 2; Activity (Escherichia coli [19]): Active; fractional inhibitory concentration index (FICI) (Staphylococcus aureus [20]): 0.5; Activity (Escherichia coli [22]): Active; fractional inhibitory concentration index (FICI) (Escherichia coli [23]): 0.625; CC50 at 1 h [26]: 35.9 µM; Activity (Cell membrane [27]): Active
CC(C)C[C@H](NC(=O)[C@H](CC(C)C)NC(=O)[C@H](CCC(=O)O)NC(=O)[C@H](CCCCN)NC(=O)[C@H](CC(C)C)NC(=O)[C@H](CC(C)C)NC(=O)[C@H](CCCCN)NC(=O)[C@H](C)NC(=O)[C@@H](NC(=O)[C@H](CCCCN)NC(=O)[C@@H]1CCCN1C(=O)[C@H](CC(C)C)NC(=O)[C@@H](N)Cc1ccccc1)C(C)C)C(N)=O (H-FLPKVAKLLKELL-NH2)	–	0.75	Toxic	0.825	–	20%	0.75	0.25	Toxic	0.75	–	Active	Toxic	Dde	Active	0.625	Active	1.25	Active	16.475 min	Activity (Escherichia coli [30]): Active; Activity (Staphylococcus aureus [31]): Active; Activity [32]: Toxic; Stability [33]: Stable; Activity (Cell membrane [17]): Dde; fractional inhibitory concentration index (FICI) (Staphylococcus aureus [20]): 0.5; Activity (Escherichia coli [34]): Active; Activity (Escherichia coli [35]): 100%; fractional inhibitory concentration index (FICI) (Escherichia coli [23]): 0.375; Activity (Escherichia coli [36]): Active; Activity (Escherichia coli [37]): Active; CC50 at 1 h [26]: > 128 µM; Activity (Cell membrane [27]): Active; Activity (Escherichia coli [38]): Active
CC[C@H](C)CCCCC(=O)N[C@@H](CCN)C(=O)N[C@H](C(=O)N[C@@H](CCN)C(=O)N[C@H]1CCNC(=O)[C@H]([C@@H](C)O)NC(=O)[C@H](CCN)NC(=O)[C@H](CCN)NC(=O)[C@H](CC(C)C)NC(=O)[C@@H](Cc2ccccc2)NC(=O)[C@H](CCN)NC1=O)[C@@H](C)O (X1-[Dab]T[Dab][Dab][Dab][dF]L[Dab][Dab]T; lactam 4-C)	4	–	–	–	1	–	–	–	–	–	2	Active	–	–	Active	0.1875	Active	0.375	Active	13.125 min	Activity (Escherichia coli [39]): 100%; Stability [33]: Stable; fold change (FC) (Staphylococcus aureus [18]): 2; Activity (Escherichia coli [19]): Active; Activity (Escherichia coli [34]): Active; Activity (Escherichia coli [22]): Active; Activity [40]: Non-Toxic; Activity (Escherichia coli [38]): Active
